Data set [1] can be described thus: Lipophilicity determination (LogD7.4, HPLC-MS). Particulars: pH 7.4, pH 7.4, chromatographic. In kind it is physicochemical.
Procedure: Lipophilicity determination. LogD7.4 was analyzed using an HPLC−MS based method.50 The retention time of 12 compounds with known LogD7.4 was determined and plotted toward their LogD7.4. Linear regression was used to determine the LogD7.4 of unknown compounds. Analysis was performed using a Dionex Ultimate 3000 HPLC system coupled to a TSQ Quantum Access MAX (Thermo Fisher, Dreieich, Germany) with the following conditions: EC150/2 NUCLEODUR C18 Pyramid column, 5 μM (Macherey Nagel, Düren, Germany); eluent A: 50 mM NH4OAc pH 7.4, eluent B: acetonitrile, and flow: 0.6 mL/min.
A short description of data set [2]: Metabolic stability in mouse liver S9 fraction. It counts as in vitro ADME.
Data set [3] is described as follows: Metabolic stability in human liver S9 fraction. It counts as in vitro ADME.
Data set [4] in a line: Plasma stability, mouse. In kind it is in vitro ADME. Particulars: for half-life at 1 μM: mouse plasma, read-out: Plasma T1/2 Mouse.
Data set [5] is described as follows: Calu-3 permeability. In kind it is in vitro ADME. Particulars: human.
Data set [6] has as its target T1, MMP-1 (Homo sapiens, UniProt P03956).
T1 construct: purchased AnaSpec (Fremont, CA, USA)
T1 sequence (P03956 100-469): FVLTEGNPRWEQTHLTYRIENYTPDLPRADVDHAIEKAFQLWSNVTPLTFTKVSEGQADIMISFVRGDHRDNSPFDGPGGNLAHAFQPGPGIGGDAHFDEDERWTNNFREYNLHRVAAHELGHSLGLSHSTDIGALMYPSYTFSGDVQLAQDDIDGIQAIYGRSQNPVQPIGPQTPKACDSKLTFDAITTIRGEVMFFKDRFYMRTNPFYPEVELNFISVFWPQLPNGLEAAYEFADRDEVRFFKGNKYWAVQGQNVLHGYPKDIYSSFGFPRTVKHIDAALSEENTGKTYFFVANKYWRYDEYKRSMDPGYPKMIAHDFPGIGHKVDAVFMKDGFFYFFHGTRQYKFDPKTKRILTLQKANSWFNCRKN
In words: MMP-1 inhibition assay. In kind it is biochemical. Particulars: read-out: % inhibition MMP-1.

The target of data set [7] is T2, MMP-2 (Homo sapiens, UniProt P08253).
T2 construct: purchased AnaSpec (Fremont, CA, USA)
T2 sequence (P08253 110-660): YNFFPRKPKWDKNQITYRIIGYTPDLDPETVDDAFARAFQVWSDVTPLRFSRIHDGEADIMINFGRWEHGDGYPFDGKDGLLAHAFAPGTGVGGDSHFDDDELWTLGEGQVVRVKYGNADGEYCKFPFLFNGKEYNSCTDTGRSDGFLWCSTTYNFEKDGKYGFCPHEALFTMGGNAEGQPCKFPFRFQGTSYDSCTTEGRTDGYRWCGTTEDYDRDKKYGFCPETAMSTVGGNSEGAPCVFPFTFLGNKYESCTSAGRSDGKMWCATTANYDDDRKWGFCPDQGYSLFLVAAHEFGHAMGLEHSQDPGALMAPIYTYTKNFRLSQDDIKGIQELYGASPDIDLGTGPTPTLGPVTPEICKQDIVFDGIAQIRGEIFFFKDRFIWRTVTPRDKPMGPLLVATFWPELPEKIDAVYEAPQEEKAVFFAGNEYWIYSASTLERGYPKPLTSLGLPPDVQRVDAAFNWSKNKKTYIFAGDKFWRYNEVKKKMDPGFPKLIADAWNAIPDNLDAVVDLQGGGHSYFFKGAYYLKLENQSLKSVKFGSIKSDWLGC
In words: MMP-2 inhibition assay. Particulars: read-out: % inhibition MMP-2. It counts as biochemical.

Data set [8] concerns the target T3, MMP-3 (Homo sapiens, UniProt P08254).
T3 construct: purchased AnaSpec (Fremont, CA, USA)
In words: MMP-3 inhibition assay. In kind it is biochemical. Particulars: read-out: % inhibition MMP-3.

Data set [9] addresses T4, HDAC-3 (Homo sapiens, UniProt O15379).
T4 construct: purchased Sigma-Aldrich (Saint Louis, MO)
The data set can be described thus: HDAC-3 inhibitor screening kit. It counts as biochemical.

Data set [10] has as its target T5, HDAC-8 (Homo sapiens, UniProt Q9BY41).
T5 construct: purchased Sigma-Aldrich (Saint Louis, MO)
T5 sequence (Q9BY41 1-377): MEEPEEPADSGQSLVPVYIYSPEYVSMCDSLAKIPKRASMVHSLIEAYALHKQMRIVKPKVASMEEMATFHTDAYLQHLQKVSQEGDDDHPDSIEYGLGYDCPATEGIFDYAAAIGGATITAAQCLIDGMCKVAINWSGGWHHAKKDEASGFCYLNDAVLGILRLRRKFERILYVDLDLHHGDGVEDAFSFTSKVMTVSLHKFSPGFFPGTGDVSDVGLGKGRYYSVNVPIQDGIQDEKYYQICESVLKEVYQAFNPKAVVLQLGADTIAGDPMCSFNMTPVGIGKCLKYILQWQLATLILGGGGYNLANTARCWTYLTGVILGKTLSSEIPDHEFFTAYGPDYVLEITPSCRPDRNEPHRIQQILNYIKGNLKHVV
The data set can be described thus: HDAC-8 inhibitor screening kit. In kind it is biochemical.

Data set [11] concerns the target T6, TACE (Homo sapiens, UniProt P78536).
T6 construct: purchased Sigma-Aldrich (Saint Louis, MO)
The data set can be described thus: TACE inhibitor screening kit. It counts as biochemical. Particulars: read-out: % inhibition TACE.

Data set [12] addresses T7, COX-1 (Ovis aries, UniProt P05979).
T7 construct: purchased Abcam (Cambridge, UK)
T7 sequence (P05979 25-600): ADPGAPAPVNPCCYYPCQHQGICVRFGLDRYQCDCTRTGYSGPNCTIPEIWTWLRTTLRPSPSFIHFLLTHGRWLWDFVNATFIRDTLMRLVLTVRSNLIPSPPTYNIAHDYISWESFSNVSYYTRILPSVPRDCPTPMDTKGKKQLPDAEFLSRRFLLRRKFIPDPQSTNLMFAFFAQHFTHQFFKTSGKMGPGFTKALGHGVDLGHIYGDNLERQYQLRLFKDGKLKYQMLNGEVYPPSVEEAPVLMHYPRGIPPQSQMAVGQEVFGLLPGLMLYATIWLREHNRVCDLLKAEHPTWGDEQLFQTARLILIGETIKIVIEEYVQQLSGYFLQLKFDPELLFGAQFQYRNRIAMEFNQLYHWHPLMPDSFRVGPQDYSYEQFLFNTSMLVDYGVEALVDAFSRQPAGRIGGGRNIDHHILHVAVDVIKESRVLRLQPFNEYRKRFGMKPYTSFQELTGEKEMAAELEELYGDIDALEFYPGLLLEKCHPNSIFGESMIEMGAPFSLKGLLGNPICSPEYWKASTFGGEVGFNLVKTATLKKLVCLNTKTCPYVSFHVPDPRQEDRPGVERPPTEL
In words: Fluorometric COX-1 inhibitor assay. It counts as biochemical, human.

For data set [13], the system named is Galleria mellonella larvae infected with wt PA14. The data set can be described thus: G. mellonella infection model.
Data set [14] has as its system HEK293. Particulars: human, 48 h, 100 µM.
Procedure: Culturing of HepG2, A549 and HEK293 cells. The human hepatocellular carcinoma cell line HepG2, the lung adenocarcinoma cell line A549 and Human Embryonic (HEK) 293 cells were cultured in Dulbecco's Modified Eagle Medium (DMEM), containing 10% Fetal Bovine Serum
(FBS) and 1% penicillin-streptomycin mixture. Cells were maintained according to standard cell
Cytotoxicity assay. An MTT-based assay was employed to evaluate the viability of HepG2,
HEK293 and A549 cells after challenge with selected LasB inhibitors and performed as described
Data set [15] addresses T8, LasB (Pseudomonas aeruginosa, UniProt Q02RJ6).
T8 construct: made in house
In words: biochemical. In kind it is biochemical.

Data set [16] can be described thus: Microsomal stability, mouse liver microsomes. It counts as in vitro ADME. Particulars: C57BL6, mouse, pooled liver microsomes. In general terms: Microsomes from liver hold many membrane-bound enzymes, among them those of drug oxidation.
Data set [17] is described as follows: Microsomal stability, rat liver microsomes. In kind it is in vitro ADME. Particulars: Wistar, pooled liver microsomes.
A short description of data set [18]: Microsomal stability, minipig liver microsomes. In kind it is in vitro ADME. Particulars: Göttingen, pooled liver microsomes.
Data set [19] in a line: Plasma stability, rat. It counts as in vitro ADME. Particulars: Wistar, pooled plasma, species profiling, read-out: Plasma T1/2 Rat (Wistar).
A short description of data set [20]: Plasma stability, minipig. In kind it is in vitro ADME. Particulars: Göttingen, pooled plasma, species profiling, read-out: Plasma T1/2 Minipig (Göttingen).
In data set [21] the test system is P. aeruginosa PA14. In words: Bacterial growth inhibition assay. In kind it is cell-based, Pseudomonas aeruginosa. Particulars: Pseudomonas aeruginosa, PA14; 100 µM compound concentration; read-out: Percent (%) growth inhibition of P. aeruginosa PA14.
Procedure: Bacterial growth inhibition assay. Assays regarding the determination of the MIC were
performed as described recently for P. aeruginosa PA14.58

Read-outs that look alike come from different tables or passages of the source. Some results are limits rather than exact numbers.

The results in this text go back to PMC10755728, “Inhibitors of the Elastase LasB for the Treatment of Pseudomonas aeruginosa Lung Infections” (ACS Central Science, 2023).

One may read the chromatographic logD as lipophilicity estimated from chromatographic retention. A lower chromatographic logD goes with lower lipophilicity. By microsomal CLint is commonly meant a measure of how fast metabolising enzymes remove a compound, apart from limits set by blood flow. A lower microsomal CLint goes with slow turnover. By Papp is commonly meant the rate of passage across a membrane or cell layer, normalised by area and donor concentration. Read a high Papp as ready permeation. For orientation: inhibition means how much of the control response was suppressed. A word on the IC50: it is the concentration needed to halve the response being measured.

T4 sequence (O15379 whole entry): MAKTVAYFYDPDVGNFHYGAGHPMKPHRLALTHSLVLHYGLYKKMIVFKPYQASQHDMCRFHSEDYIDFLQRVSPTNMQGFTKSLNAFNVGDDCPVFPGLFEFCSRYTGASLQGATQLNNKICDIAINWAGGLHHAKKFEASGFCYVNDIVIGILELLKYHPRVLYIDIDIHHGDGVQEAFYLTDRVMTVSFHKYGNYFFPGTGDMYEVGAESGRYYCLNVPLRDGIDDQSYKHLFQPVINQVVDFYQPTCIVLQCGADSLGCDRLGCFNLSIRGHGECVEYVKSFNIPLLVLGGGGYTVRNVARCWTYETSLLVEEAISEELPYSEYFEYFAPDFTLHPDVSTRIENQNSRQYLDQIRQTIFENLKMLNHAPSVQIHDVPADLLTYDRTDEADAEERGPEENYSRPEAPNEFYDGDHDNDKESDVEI
T4 sequence (Q9Y618 395-489 partner limits assumed): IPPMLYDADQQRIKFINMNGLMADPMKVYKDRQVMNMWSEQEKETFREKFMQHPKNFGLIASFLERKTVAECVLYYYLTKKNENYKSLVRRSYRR
T8 sequence (Q02RJ6 198-498): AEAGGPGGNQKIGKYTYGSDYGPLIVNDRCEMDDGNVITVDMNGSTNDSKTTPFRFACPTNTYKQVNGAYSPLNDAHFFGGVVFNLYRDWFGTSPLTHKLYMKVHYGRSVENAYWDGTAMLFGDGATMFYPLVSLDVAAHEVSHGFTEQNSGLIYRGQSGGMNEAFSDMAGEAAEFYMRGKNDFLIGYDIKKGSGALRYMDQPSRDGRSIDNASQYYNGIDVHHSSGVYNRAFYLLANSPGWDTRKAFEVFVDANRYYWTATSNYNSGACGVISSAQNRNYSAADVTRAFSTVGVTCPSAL
T6 sequence (P78536 215-824): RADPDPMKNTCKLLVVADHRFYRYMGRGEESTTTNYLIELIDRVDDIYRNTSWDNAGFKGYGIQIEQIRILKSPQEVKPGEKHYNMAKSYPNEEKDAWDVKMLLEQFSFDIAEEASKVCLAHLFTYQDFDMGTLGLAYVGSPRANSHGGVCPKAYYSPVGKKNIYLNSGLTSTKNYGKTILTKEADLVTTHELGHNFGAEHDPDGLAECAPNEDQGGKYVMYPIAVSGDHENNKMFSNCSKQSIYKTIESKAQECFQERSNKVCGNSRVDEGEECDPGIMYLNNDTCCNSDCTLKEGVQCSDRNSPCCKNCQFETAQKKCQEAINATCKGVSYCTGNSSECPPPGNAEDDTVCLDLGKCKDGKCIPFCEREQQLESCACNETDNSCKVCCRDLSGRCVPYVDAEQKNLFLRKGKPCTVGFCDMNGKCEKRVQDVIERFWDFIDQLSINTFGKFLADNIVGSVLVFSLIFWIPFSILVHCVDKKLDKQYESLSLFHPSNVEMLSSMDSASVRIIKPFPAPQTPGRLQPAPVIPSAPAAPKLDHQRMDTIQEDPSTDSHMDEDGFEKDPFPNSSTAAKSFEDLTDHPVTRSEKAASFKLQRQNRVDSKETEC
T3 sequence (P08254 100-477): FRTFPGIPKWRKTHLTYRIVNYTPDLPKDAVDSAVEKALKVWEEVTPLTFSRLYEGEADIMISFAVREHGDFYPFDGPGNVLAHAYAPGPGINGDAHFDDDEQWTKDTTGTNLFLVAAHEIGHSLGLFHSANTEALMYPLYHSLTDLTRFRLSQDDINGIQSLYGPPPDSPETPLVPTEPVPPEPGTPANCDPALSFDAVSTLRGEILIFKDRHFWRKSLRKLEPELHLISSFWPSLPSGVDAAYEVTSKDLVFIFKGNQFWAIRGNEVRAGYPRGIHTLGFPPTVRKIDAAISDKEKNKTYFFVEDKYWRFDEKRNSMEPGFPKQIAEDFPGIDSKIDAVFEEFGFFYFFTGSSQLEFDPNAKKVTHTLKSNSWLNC

Regarding `Cc1ccc(NC(=O)C(CC(C)C)n2ccnn2)cc1` (centres unmarked) [Compound 3l], in data set [1], the chromatographic logD was more than 1.8. In addition, the microsomal CLint at 1 μM in data set [2] was 90 ± 9 µL/min/mg; in [3], 8.8 ± 1.2 µL/min/mg. Also, the half-life at 1 μM in data set [4] was more than 2.5 h. In data set [5], this molecule displayed a Papp at 300 min of 17 ± 1 ×10⁻⁶ cm/s. Also, the inhibition at 100 µM in data set [6] (100 μM), in [7] (100 μM), in data set [8] (100 μM), in data set [9], in data set [10] and in [11] (100 μM) was less than 10% throughout. The inhibition at 100 µM in data set [12] is less than 10%.
Regarding `NC[C@H]1O[C@H](O[C@H]2[C@H](O)[C@@H](O[C@H]3O[C@H](CO)[C@@H](O)[C@H](N)[C@H]3O)[C@H](N)C[C@@H]2N)[C@H](N)C[C@@H]1O` [tobramycin, reference compound], the “survival of larvae infected with wt PA14” value in [13] (1 nmol 4b, 10.7 nmol tobramycin, or both, 17% in the wild type) stood at 23%. For the same molecule, the “survival in the PBS treated groups (not infected)” value in data set [13] (PBS with 4b, tobramycin or combination of both) is 100%.
As to `Cc1ccc(NC(=O)C(CC(C)C)n2nccn2)cc1` (centres unmarked) [Compound 3m], the chromatographic logD in [1] was more than 1.8. Also, the microsomal CLint at 1 μM in data set [2] worked out at 356 ± 45 µL/min/mg; in data set [3], 18.5 ± 0.9 µL/min/mg. For the same molecule, the half-life at 1 μM in data set [4] was more than 2.5 h. Also, the Papp at 300 min in data set [5] is 18 ± 1 ×10⁻⁶ cm/s. The inhibition at 100 µM in data set [6] (100 μM), in data set [7] (100 μM), in data set [8] (100 μM), in data set [9], in data set [10] and in [11] (100 μM) was less than 10% in each case. In data set [12], this molecule had an inhibition at 100 µM of less than 10%. Further, in data set [14], the “% growth inhibition HEK293” value is 21 ± 1%.
`CC(C)CC(C(=O)Nc1ccc(F)cc1)P(=O)(O)O` (centres unmarked) [Compound 4h]: the concentration for half-maximal inhibition (IC50) in [15] (FRET-based assay, read-out: LasB IC50) worked out at 92.7 ± 21.6 nM. In data set [15] (vs 4i and 4j), the “fold less active than chlorine and bromine compounds” value worked out at 2 fold. In [1], this molecule yielded a chromatographic logD of -0.79. The microsomal CLint at 1 μM in data set [2] and in data set [3] was less than 5.8 µL/min/mg throughout. In addition, the half-life in [4] (C57BL6, mouse, pooled plasma, species profiling, read-out: Plasma T1/2 Mouse (C57BL6)) is more than 4 h; in [19], more than 4 h; in [20], more than 4 h. Moreover, the half-life at 1 μM in data set [4] is more than 2.5 h. In addition, the microsomal CLint in [16], in data set [17] and in data set [18] was less than 11.6 µL/min/mg in each case.
As to `Cc1ccc(NC(=O)C(CC(C)C)S(=O)(=O)O)cc1` (centres unmarked) [Compound 3i], the IC50 in [15] (LasB IC50, FRET-based assay) stood at 16000 nM. In [1], this molecule gave a chromatographic logD of -0.64. In addition, the microsomal CLint at 1 μM in [2] and in data set [3] was less than 5.8 µL/min/mg in each case. Further, the half-life at 1 μM in data set [4] was more than 2.5 h. The molecule further returned a Papp at 300 min in [5] of 0.47 ± 0.36 ×10⁻⁶ cm/s. The inhibition at 100 µM was 12 ± 2% in [6] (100 μM); less than 10% in data set [7] (100 μM); less than 10% in data set [8] (100 μM); less than 10% in data set [9]; less than 10% in [10]; less than 10% in data set [11] (100 μM). The molecule also gave an inhibition at 100 µM in [12] of less than 10%.
With `CC(C)CC(C(=O)Nc1ccc(C#N)cc1)P(=O)(O)O` (centres unmarked) [Compound 4k], the IC50 in data set [15] (LasB IC50, FRET-based assay) is approximately 25 nM; in [15] (LasB IC50 in presence of 1% pulmonary surfactant, 1% pulmonary surfactant), 85 nM. This molecule also had a chromatographic logD in data set [1] of -0.87. Besides, the microsomal CLint at 1 μM in data set [2] and in data set [3] was less than 5.8 µL/min/mg each time. For the same molecule, in [4], the half-life at 1 μM was more than 2.5 h. In addition, the inhibition at 100 µM in [6] is 10 ± 5%; in data set [7] it was less than 10%; in data set [8], 11 ± 5%; in [11], less than 10%; in data set [12], less than 10%; in data set [21], less than 10%. In addition, in data set [14], the “% growth inhibition HEK293” value was found to be 15 ± 23%.
